Experimental data published in ChEMBL document CHEMBL4610038, “The synthesis of trifluoromethylated N-nitroaryl-2-amino-1,3-dichloropropane derivatives and their evaluation as potential anti-cancer agents” (Bioorg Med Chem Lett, 2020).

Assays:
SW48 [1] = experiment: Cytotoxicity against human SW48 cells assessed as reduction in cell viability; format: functional, cell-based
MDA-MB-468 [2] = experiment: Cytotoxicity against human MDA-MB-468 cells assessed as cell viability at 100 uM relative to control; format: functional; details: read-out: Activity
[3] = Cytotoxicity against human HK1 cells assessed as reduction in cell viability; format: functional, cell-based; details: HK-1
Caco-2 [4] = experiment: Cytotoxicity against human Caco2 cells assessed as reduction in cell viability; format: functional, cell-based
HT-29 [5] = experiment: Cytotoxicity against human HT-29 cells assessed as reduction in cell viability; format: functional, cell-based
T47D [6] = experiment: Cytotoxicity against human T47D cells assessed as reduction in cell viability; format: functional, cell-based
SW1990 [7] = experiment: Cytotoxicity against human SW1990 cells assessed as cell viability at 100 uM relative to control; format: functional; details: read-out: Activity
CNE [8] = experiment: Cytotoxicity against human CNE1 cells assessed as reduction in cell viability; format: functional, cell-based
SUNE1 [9] = experiment: Cytotoxicity against human SUNE1 cells assessed as cell viability at 100 uM relative to control; format: functional; details: read-out: Activity
MCF-10A = experiment: Cytotoxicity against human MCF10A cells assessed as reduction in cell viability; format: cell-based
MDA-MB-231 [10] = experiment: Cytotoxicity against human MDA-MB-231 cells assessed as reduction in cell viability; format: functional, cell-based
MRC5 = experiment: Cytotoxicity against human MRC5 cells assessed as reduction in cell viability; format: cell-based
MDA-MB-468 [11] = experiment: Cytotoxicity against human MDA-MB-468 cells assessed as reduction in cell viability; format: functional, cell-based
MCF7 [12] = experiment: Cytotoxicity against human MCF7 cells assessed as cell viability at 100 uM relative to control; format: functional; details: read-out: Activity
NCI-H1299 [13] = experiment: Cytotoxicity against human H1299 cells assessed as cell viability at 100 uM relative to control; format: functional; details: read-out: Activity
SUNE1 [14] = experiment: Cytotoxicity against human SUNE1 cells assessed as reduction in cell viability; format: functional, cell-based
SK-BR-3 [15] = experiment: Cytotoxicity against human SKBR3 cells assessed as reduction in cell viability; format: functional, cell-based
HCT-116 [16] = experiment: Cytotoxicity against human HCT116 cells assessed as reduction in cell viability; format: functional, cell-based
[17] = Cytotoxicity against human MRC5 cells assessed as cell viability at 100 uM relative to control; format: cell-based; details: read-out: Activity
T47D [18] = experiment: Cytotoxicity against human T47D cells assessed as cell viability at 100 uM relative to control; format: functional; details: read-out: Activity
NCI-H1299 [19] = experiment: Cytotoxicity against human H1299 cells assessed as reduction in cell viability; format: functional, cell-based
SH-SY5Y [20] = experiment: Cytotoxicity against human SH-SY5Y cells assessed as cell viability at 100 uM relative to control; format: functional; details: read-out: Activity
CNE [21] = experiment: Cytotoxicity against human CNE1 cells assessed as cell viability at 100 uM relative to control; format: functional; details: read-out: Activity
HCT-116 [22] = experiment: Cytotoxicity against human HCT116 cells assessed as cell viability at 100 uM relative to control; format: functional; details: read-out: Activity
ASPC1 [23] = experiment: Cytotoxicity against human AsPC1 cells assessed as cell viability at 100 uM relative to control; format: functional; details: read-out: Activity
MDA-MB-231 [24] = experiment: Cytotoxicity against human MDA-MB-231 cells assessed as cell viability at 100 uM relative to control; format: functional; details: read-out: Activity
A549 [25] = experiment: Cytotoxicity against human A549 cells assessed as reduction in cell viability; format: functional, cell-based
A549 [26] = experiment: Cytotoxicity against human A549 cells assessed as cell viability at 100 uM relative to control; format: functional; details: read-out: Activity
SW48 [27] = experiment: Cytotoxicity against human SW48 cells assessed as cell viability at 100 uM relative to control; format: functional; details: read-out: Activity
SW1990 [28] = experiment: Cytotoxicity against human SW1990 cells assessed as reduction in cell viability; format: functional, cell-based
ASPC1 [29] = experiment: Cytotoxicity against human AsPC1 cells assessed as reduction in cell viability; format: functional, cell-based
BXPC-3 [30] = experiment: Cytotoxicity against human BxPC3 cells assessed as reduction in cell viability; format: functional, cell-based
Caco-2 [31] = experiment: Cytotoxicity against human Caco2 cells assessed as cell viability at 100 uM relative to control; format: functional; details: read-out: Activity
MCF7 [32] = experiment: Cytotoxicity against human MCF7 cells assessed as reduction in cell viability; format: functional, cell-based
HT-29 [33] = experiment: Cytotoxicity against human HT-29 cells assessed as cell viability at 100 uM relative to control; format: functional; details: read-out: Activity
SH-SY5Y [34] = experiment: Cytotoxicity against human SH-SY5Y cells assessed as reduction in cell viability; format: functional, cell-based
BXPC-3 [35] = experiment: Cytotoxicity against human BxPC3 cells assessed as cell viability at 100 uM relative to control; format: functional; details: read-out: Activity
SK-BR-3 [36] = experiment: Cytotoxicity against human SKBR3 cells assessed as cell viability at 100 uM relative to control; format: functional; details: read-out: Activity
[37] = Cytotoxicity against human MCF10A cells assessed as cell viability at 100 uM relative to control; format: cell-based, MCF-10A; details: read-out: Activity
[38] = Cytotoxicity against human HK1 cells assessed as cell viability at 100 uM relative to control; format: functional; details: HK-1, read-out: Activity

Compound	IC50 (SW48 [1]) [µM]	viability at 100 µM (MDA-MB-468 [2]) [%]	IC50 [3] [µM]	IC50 (Caco-2 [4]) [µM]	IC50 (HT-29 [5]) [µM]	IC50 (T47D [6]) [µM]	viability at 100 µM (SW1990 [7]) [%]	IC50 (CNE [8]) [µM]	viability at 100 µM (SUNE1 [9]) [%]	IC50 (MCF-10A) [µM]	IC50 (MDA-MB-231 [10]) [µM]	IC50 (MRC5) [µM]	IC50 (MDA-MB-468 [11]) [µM]	viability at 100 µM (MCF7 [12]) [%]	viability at 100 µM (NCI-H1299 [13]) [%]	IC50 (SUNE1 [14]) [µM]	IC50 (SK-BR-3 [15]) [µM]	IC50 (HCT-116 [16]) [µM]	viability at 100 µM [17] [%]	viability at 100 µM (T47D [18]) [%]	also measured
O=[N+]([O-])c1ccc(NC(CO)CO)c(C(F)(F)F)c1	> 100	93.2	> 100	> 100	> 100	> 100	72.4	> 100	52.4	> 100	> 100	> 100	> 100	45.7	93.1	> 100	> 100	> 100	74.9	59.1	IC50 (NCI-H1299 [19]): > 100 µM; viability at 100 µM (SH-SY5Y [20]): 74.7%; viability at 100 µM (CNE [21]): 82.5%; viability at 100 µM (HCT-116 [22]): 84.9%; viability at 100 µM (ASPC1 [23]): 84.7%; viability at 100 µM (MDA-MB-231 [24]): 93.1%; IC50 (A549 [25]): > 100 µM; viability at 100 µM (A549 [26]): 99.6%; viability at 100 µM (SW48 [27]): 61.8%; IC50 (SW1990 [28]): > 100 µM; IC50 (ASPC1 [29]): > 100 µM; IC50 (BXPC-3 [30]): > 100 µM; viability at 100 µM (Caco-2 [31]): 101%; IC50 (MCF7 [32]): 88.3 µM; viability at 100 µM (HT-29 [33]): 84.2%; IC50 (SH-SY5Y [34]): > 100 µM; viability at 100 µM (BXPC-3 [35]): 109%; viability at 100 µM (SK-BR-3 [36]): 75.2%; viability at 100 µM [37]: 88.8%; viability at 100 µM [38]: 90.4%
O=[N+]([O-])c1ccc(NC(CCl)CCl)c(C(F)(F)F)c1	33.4	20.4	> 100	10.1	92.1	34.7	28.6	15.3	38.6	81	42.4	31	52.1	10.5	38.1	55.1	> 100	33.1	22.2	24.3	IC50 (NCI-H1299 [19]): 49.1 µM; viability at 100 µM (SH-SY5Y [20]): 21.6%; viability at 100 µM (CNE [21]): 12.4%; viability at 100 µM (HCT-116 [22]): 24.5%; viability at 100 µM (ASPC1 [23]): 40.2%; viability at 100 µM (MDA-MB-231 [24]): 31.8%; IC50 (A549 [25]): 57.7 µM; viability at 100 µM (A549 [26]): 37.1%; viability at 100 µM (SW48 [27]): 26.5%; IC50 (SW1990 [28]): 33.3 µM; IC50 (ASPC1 [29]): 85.1 µM; IC50 (BXPC-3 [30]): 52.1 µM; viability at 100 µM (Caco-2 [31]): 9.5%; IC50 (MCF7 [32]): 12.1 µM; viability at 100 µM (HT-29 [33]): 45.3%; IC50 (SH-SY5Y [34]): 33.7 µM; viability at 100 µM (BXPC-3 [35]): 23.2%; viability at 100 µM (SK-BR-3 [36]): 55.6%; viability at 100 µM [37]: 47.5%; viability at 100 µM [38]: 61.4%
O=[N+]([O-])c1ccc(NC(CO)CO)cc1C(F)(F)F	> 100	98.7	> 100	> 100	> 100	> 100	71.5	> 100	104	> 100	> 100	41	> 100	49.7	72.3	> 100	> 100	> 100	32.8	71.2	IC50 (NCI-H1299 [19]): > 100 µM; viability at 100 µM (SH-SY5Y [20]): 70.8%; viability at 100 µM (CNE [21]): 100%; viability at 100 µM (HCT-116 [22]): 86.8%; viability at 100 µM (ASPC1 [23]): 87.3%; viability at 100 µM (MDA-MB-231 [24]): 65.7%; IC50 (A549 [25]): > 100 µM; viability at 100 µM (A549 [26]): 61.9%; viability at 100 µM (SW48 [27]): 78.9%; IC50 (SW1990 [28]): > 100 µM; IC50 (ASPC1 [29]): > 100 µM; IC50 (BXPC-3 [30]): > 100 µM; viability at 100 µM (Caco-2 [31]): 96.1%; IC50 (MCF7 [32]): 88.1 µM; viability at 100 µM (HT-29 [33]): 110%; IC50 (SH-SY5Y [34]): > 100 µM; viability at 100 µM (BXPC-3 [35]): 108%; viability at 100 µM (SK-BR-3 [36]): 79.4%; viability at 100 µM [37]: 102%; viability at 100 µM [38]: 92.8%
